Counter-ions that a name gives are not always drawn. Like-named read-outs stand apart in the source and are kept apart here.
Tests used:
HPK1 kinase = biological target: T1, HPK1 kinase (Homo sapiens, UniProt Q92918); test: HPK1 kinase assay (1 mM ATP); format: biochemical
T1 construct: purchased Carna 07-410
T1 sequence (Q92918 1-346 limits assumed): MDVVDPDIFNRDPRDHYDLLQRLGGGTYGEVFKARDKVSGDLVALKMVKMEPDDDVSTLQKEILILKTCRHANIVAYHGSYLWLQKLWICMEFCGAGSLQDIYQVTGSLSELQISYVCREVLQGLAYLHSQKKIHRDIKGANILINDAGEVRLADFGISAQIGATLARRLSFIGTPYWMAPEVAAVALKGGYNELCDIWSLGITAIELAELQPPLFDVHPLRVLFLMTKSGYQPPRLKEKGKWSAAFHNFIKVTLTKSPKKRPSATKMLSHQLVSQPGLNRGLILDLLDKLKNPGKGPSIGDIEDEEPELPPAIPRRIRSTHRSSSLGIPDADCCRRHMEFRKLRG
Experimental: Test example 5: HPK1 kinase assay (1 mM ATP)
The kinase HPK1 (Carna, Cat.No 07-410) was prepared into 2× kinase solution using 1× kinase buffer. The substrate Fluorescein-PKC (Invitrogen, Cat. No. PV3506) and ATP (working concentration: 1 mM) (Sigma, Cat. No. 2383-5G) were prepared into 2× substrate solution using 1×kinase buffer. The detection reagent was diluted to 2-fold the final concentration using an antibody diluent. 100 nL of compounds at different concentrations and 5 µL of kinase solution were added to each well of a 384-well plate, and the mixture was incubated at room temperature for 10 minutes. After the incubation was completed, 5 µL of substrate solution was added to each well, and the resulting mixture was reacted at room temperature for 90 minutes. After the reaction was completed, 10 µL of detection reagent was added to each well to terminate the reaction, and the mixture was incubated at room temperature for 60 minutes. Fluorescence readings were detected using an Envision instrument with excitation at 320 nm and emission at 520 nm and 495 nm. IC50 value was calculated using XLFit excel add-in version 5.4.0.8 software. The calculation formula of the inhibition rate was shown in formula 5-1, wherein max is the Ratio of the DMSO control, min is the Ratio of the negative control without enzyme, and sample is the Ratio of the compound. Ratio = RFU520nm /RFU495nm [formula] Inhibition% = (max−sample)/(max−min) × 100% [formula] Table 5-1 Inhibitory activity of test compounds against HPK1 kinase

[1] = tested on: IL-2 secretion by T cells; test: IL-2 detection assay in cells (ELISA, pan-T cells isolated from PBMCs); format: cell-based; settings: IL-2, CD3 antibody-coated plate, 24 hours; for Maximum activation fold: maximum activation rate/control group
Experimental: 9. IL-2 detection assay in cells
Activating effect of compounds on IL-2 secretion by T cells was evaluated using the ELISA method. Frozen PBMCs were thawed, and pan-T cells were isolated and purified using a T cell sorting kit (Stemcell, 17951). The cells were resuspended in 1640 complete medium and incubated in a 37°C&5%CO2 incubator overnight. A 96-well plate coated with an anti-human CD3 antibody (Thermo, 16-0037-38) at a final concentration of 5 µg/mL was incubated at 37°C for 2 h. The overnight-cultured cells were collected by centrifugation, the supernatant was discarded, and the cells were resuspended in 1640 complete medium, and seeded in the CD3 antibody-coated 96-well plate at a density of 10^5cells/well. The compounds at different concentrations were added, and the mixture was incubated in a 37°C&5%CO2 incubator for 24 hours. After the incubation was completed, the resulting mixture was centrifuged at 1000 rpm for 1 minute to collect the supernatant, and IL-2 was detected according to the ELISA instructions. DMSO without compounds was used as the control group to calculate the activation rate of the compounds, and prism was used to fit the activation curve. Maximum activation fold = maximum activation rate/control group. Table 9-1 Results of IL-2 activation by test compounds

[2] = Pharmacokinetic test in mice; format: in vivo, ICR mice; settings: mouse, plasma
Experimental: Test example 6: Pharmacokinetic test in mice
Experimental objective: In this experiment, a single dose of test substances was administered to ICR mice intravenously and intragastrically, the concentrations of the test compounds in plasma of mice were measured, and the pharmacokinetic characteristics and bioavailability of the test compounds in mice were evaluated.
Experimental animals: Male ICR mice, 20-35 g, purchased from Chengdu Dossy Experimental Animals Co., Ltd. (SCXK (CHUAN) 2020-030).
Experimental method: On the day of the experiment, the ICR mice were randomly grouped according to their body weights. The animals were fasted but with water available overnight before the administration, and fed 4 h after the administration.
Sampling: Blood was taken from the orbits of the mice at specified time points, and placed in an EDTAK2 centrifuge tube. Centrifugation was performed at 5000 rpm at 4°C for 10 min, and the plasma was collected.
Time points for plasma collection in G1 and G1-2 groups: 0, 5 min, 15 min, 30 min, 1 h, 2 h, 4 h, 7 h, and 24 h.
Time points for plasma collection in G2 and G2-2 groups: 0, 5 min, 15 min, 30 min, 1 h, 2 h, 4 h, 7 h, and 24 h.
Before analysis and detection, all the samples were stored at -60°C or lower. The samples were analysed quantitatively by LC-MS/MS. Table 6-1 PK data of test compound drug in mice

[3] = Pharmacokinetic test in rats; format: in vivo, SD rats; settings: rat, plasma
Experimental: Test example 7: Pharmacokinetic test in rats
Experimental animals: Male SD rats, 180-200 g, purchased from Chengdu Dossy Experimental Animals Co., Ltd. with the laboratory animal production license number of SCXK (CHUAN) 2020-030.
Experimental design: on the day of the experiment, the SD rats were randomly grouped according to their body weights. The animals were fasted but with water available overnight before the administration, and fed 4 h after the administration.
Vehicle for intragastric administration: 5% Solutol+5% TPGS+30% PEG400+60% (20% SBE-β-CD)
Blood was taken from the orbits of the […] at specified time points, and placed in an EDTAK2 centrifuge tube. Centrifugation was performed at 5000 rpm for 10 min, and the plasma was collected.
Blood sampling time points for the intravenous administration group were: 0, 5 min, 15 min, 30 min, 1 h, 2 h, 4 h, 6 h, 8 h and 24 h; blood sampling time points for the intragastric administration group were: 0, 5 min, 15 min, 30 min, 1 h, 2 h, 4 h, 6 h, 8 h and 24 h. Before analysis and detection, all the samples were stored at - 60°C or lower. The samples were analysed quantitatively by LC-MS/MS. Table 7-1 PK data of test compound drug in rats

HPK1 protein = biological target: T2, HPK1 protein (Homo sapiens, UniProt Q92918); test: Detection of HPK1 protein expression level in Jurkat cells (24 h); format: cell-based; settings: 24 hours incubation
T2 construct: host or cells: Jurkat cells
Experimental: Test example 4: Detection of HPK1 protein expression level in Jurkat cells (24 h)
Jurkat cells from ATCC were placed in a RPMI-1640 complete medium (supplemented with 10% FBS and 1% penicillin-streptomycin solution) and cultured at 37°C and 5% CO2. The cells in the logarithmic growth phase were collected, the cell density was adjusted to 5 × 10^5 cells/well with the culture medium, and the cells were added to a 6-well cell culture plate at a volume of 1 mL/well. The compound to be tested was prepared to 2-fold the final concentration, 1 mL of the compounds at different concentrations were added to administration wells, a medium containing 0.2% DMSO was added to control wells, and the plate was incubated at 37°C and 5% CO2 for 24 hours. The cells were collected into a 1.5 mL centrifuge tube, 30 µL of RIPA lysis buffer (containing 1X protease inhibitor cocktail) was added, and the cells were lysed on ice for 15 minutes and centrifuged at 12000 rpm/min at 4°C for 10 minutes. The supernatant was collected and the protein content was determined using the BCA method. The protein sample to be tested was diluted to 0.2 mg/mL, HPK1 was detected using a fully automated protein expression quantitative analyser (ProteinSimple), and the internal reference protein was β-actin (all antibodies were from CST). The software (Compass for SW) of the fully automated protein expression quantitative analyser was used to process the raw data and calculate the peak area after internal reference normalisation and the HPK1 degradation rate relative to the control group. The HPK1 degradation rate was calculated according to formula 4-1, where Aadministration well is the relative peak area of the administration group after internal reference normalisation, and Acontrol well is the relative peak area of the vehicle control group after internal reference normalisation. DC50 values were calculated using a four-parameter non-linear fitting model in Graphpad 8.3.0 software. HPK1_degradation % = 100−(Aadministration well/Acontrol well×100%) [formula] Table 4-1 Degradation activity of test compounds against HPK1 protein in Jurkat cells (24 h)

[4] = ATP working concentration: 1 mM

T2 sequence (Q92918 whole entry): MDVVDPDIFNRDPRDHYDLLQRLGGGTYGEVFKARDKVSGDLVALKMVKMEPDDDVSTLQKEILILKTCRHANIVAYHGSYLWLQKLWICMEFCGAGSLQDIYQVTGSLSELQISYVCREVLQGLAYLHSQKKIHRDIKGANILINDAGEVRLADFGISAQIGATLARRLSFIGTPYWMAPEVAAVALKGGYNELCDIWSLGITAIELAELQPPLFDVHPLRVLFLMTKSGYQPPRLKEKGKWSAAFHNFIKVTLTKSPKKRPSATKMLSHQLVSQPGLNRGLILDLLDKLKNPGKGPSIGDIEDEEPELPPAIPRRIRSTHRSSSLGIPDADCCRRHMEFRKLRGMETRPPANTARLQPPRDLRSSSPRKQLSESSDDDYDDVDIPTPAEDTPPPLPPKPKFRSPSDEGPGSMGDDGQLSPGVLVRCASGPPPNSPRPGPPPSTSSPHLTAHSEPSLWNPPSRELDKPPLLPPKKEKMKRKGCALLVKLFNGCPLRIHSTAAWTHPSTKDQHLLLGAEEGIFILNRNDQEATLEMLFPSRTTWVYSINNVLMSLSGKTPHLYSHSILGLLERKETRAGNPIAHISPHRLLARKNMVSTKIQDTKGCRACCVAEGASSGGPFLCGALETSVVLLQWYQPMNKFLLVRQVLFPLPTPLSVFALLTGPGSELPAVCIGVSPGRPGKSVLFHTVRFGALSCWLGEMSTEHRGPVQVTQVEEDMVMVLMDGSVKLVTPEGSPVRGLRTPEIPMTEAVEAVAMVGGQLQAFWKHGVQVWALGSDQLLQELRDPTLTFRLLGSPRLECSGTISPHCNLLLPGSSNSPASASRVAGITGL

Row | SMILES | AUC ([2]; po, i. g., 10 mg/kg) [ng·h/mL] | Cmax ([2]; po, i. g., 10 mg/kg) [ng/mL] | half-life ([2]; po, i. g., 10 mg/kg) [h] | IC50 (HPK1 kinase; [4]) [nM] | DC50 (HPK1 protein) [nM] | IC50 (HPK1 kinase) [nM] | also measured
1 | O=C1CCC(c2ccc(N3CCN(CC4CCN(c5ccc(Nc6ccc(-c7cnc8cc(F)ccn78)c7c6C(=O)NC7)nc5)CC4)CC3)cc2F)C(=O)N1 (single isomer, unassigned) [Compound 1-1] |  |  |  |  |  |  | IC50 (HPK1 kinase; ATP working concentration: 1 mM, read-out: IC50): < 50 nM; Activation fold at 100 nM concentration [1]: >10
2 | CN(C)Cc1nc(Nc2ccc(-c3cnc4cc(F)ccn34)c3c2C(=O)NC3)ccc1[C@@H]1CCOC1 [Control compound 1, reference compound] | 248 | 93.8 | 2.05 |  |  |  | clearance ([2]; IV, 2.5 mg/kg): 169 mL/min/kg; half-life ([2]; IV, 2.5 mg/kg): 0.89 h; Activation fold at 100 nM concentration [1]: <10; Maximum activation fold [1]: <10; clearance ([3]; IV, 2.5 mg/kg): 233 mL/min/kg; half-life ([3]; IV, 2.5 mg/kg): 0.986 h; AUC ([3]; po, i. g., 10 mg/kg): 61.1 ng·h/mL; Cmax ([3]; po, i. g., 10 mg/kg): 14.6 ng/mL; half-life ([3]; po, i. g., 10 mg/kg): 1.71 h
3 | O=C1CC[C@H](NC(=O)c2cc3c(cc2F)N2CCN(CC4CCN(c5ccc(Nc6ccc(-c7cnc8cc(F)ccn78)c7c6C(=O)NC7)nc5)CC4)C[C@@H]2CC3)C(=O)N1 [Trifluoroacetic acid salt of compound 7] |  |  |  | < 50 | < 20 |  | Activation fold at 100 nM concentration [1]: >10; Maximum activation fold [1]: >10
4 | O=C1CC[C@H](NC(=O)c2cc3c(cc2F)N2CCN(CC4CCN(c5ccc(Nc6ccc(-c7cnc8cc(F)ccn78)c7c6C(=O)NC7)nc5)CC4)C[C@H]2CC3)C(=O)N1 [Trifluoroacetic acid salt of compound 8] | 18300 | 1460 | 4.38 | < 50 | < 20 |  | 
5 | O=C1CCN(c2cc3c(cc2F)N2CCN(C4CCN(c5ccc(Nc6ccc(-c7cnc8cc(F)ccn78)c7c6C(=O)NC7)nc5)CC4)C[C@@H]2CC3)C(=O)N1 [Trifluoroacetic acid salt of compound 13] |  |  |  |  | < 20 | < 50 | 
6 | O=C1CCN(c2cc3c(cc2F)N2CCN(C4CCN(c5ccc(Nc6ccc(-c7cnc8cc(F)ccn78)c7c6C(=O)NC7)nc5)CC4)C[C@H]2CC3)C(=O)N1 [Trifluoroacetic acid salt of compound 14] |  |  |  |  | < 20 | < 50 | 
7 | O=C1CCN(c2cc3c(cc2F)N2CCN(CC4CC5(CCN(c6ccc(Nc7ccc(-c8cnc9cc(F)ccn89)c8c7C(=O)NC8)nc6)CC5)C4)C[C@@H]2CC3)C(=O)N1 [Trifluoroacetic acid salt of compound 15] | 23600 | 1620 | 7.64 | < 50 | < 20 |  | 
8 | O=C1CCN(c2cc3c(cc2F)N2CCN(C4CC5(CCN(c6ccc(Nc7ccc(-c8cnc9cc(F)ccn89)c8c7C(=O)NC8)nc6)CC5)C4)C[C@@H]2CC3)C(=O)N1 [Trifluoroacetic acid salt of compound 20] | 12600 | 1010 | 5.51 |  | < 20 | < 50 | clearance ([3]; IV, 2.5 mg/kg): 13.4 mL/min/kg; half-life ([3]; IV, 2.5 mg/kg): 4.78 h; AUC ([3]; po, i. g., 10 mg/kg): 5310 ng·h/mL; Cmax ([3]; po, i. g., 10 mg/kg): 382 ng/mL; half-life ([3]; po, i. g., 10 mg/kg): 5.29 h
9 | O=C1CC[C@H](NC(=O)c2cc3c(cc2F)N2CCN(CC4CC5(CCN(c6ccc(Nc7ccc(-c8cnc9cc(F)ccn89)c8c7C(=O)NC8)nc6)CC5)C4)C[C@@H]2CC3)C(=O)N1 [Trifluoroacetic acid salt of compound 34] |  |  |  | < 50 | < 20 |  | 
10 | O=C1CC[C@H](NC(=O)c2cc3c(cc2F)N2CCN(CC4CC5(CCN(c6ccc(Nc7ccc(-c8cnc9cc(F)ccn89)c8c7C(=O)NC8)nc6)CC5)C4)C[C@H]2CC3)C(=O)N1 [Trifluoroacetic acid salt of compound 36] |  |  |  | < 50 | < 20 |  | 
11 | O=C1CC[C@H](NC(=O)c2cc3c(cc2F)N2CCN(C4CC5(CCN(c6ccc(Nc7ccc(-c8cnc9cc(F)ccn89)c8c7C(=O)NC8)nc6)CC5)C4)C[C@H]2CC3)C(=O)N1 [Trifluoroacetic acid salt of compound 37] |  |  |  | < 50 | < 20 |  | 
12 | O=C1CC[C@H](NC(=O)c2cc3c(cc2F)N2CCN(C4CCN(c5ccc(Nc6ccc(-c7cnc8cc(F)ccn78)c7c6C(=O)NC7)nc5)CC4)C[C@H]2CC3)C(=O)N1 [Trifluoroacetic acid salt of compound 42] |  |  |  |  | < 20 | < 50 | 
